Results as given in patent US11279733B2, “Peptide antibiotics” (priority 2017, dated 2022).
Converted amounts (≈) assume the structure as drawn. Positions of bridges follow the written chain, without caps; N, C: chain ends. Non-standard residues stand in square brackets, D forms with d. Residues, ends and D or L forms follow the SMILES beside them. *: point of attachment. Decanoyl(3R-OH) = CCCCCCC[C@@H](O)CC(=O)*; Heptanoyl(6-Me) = CC(C)CCCCC(=O)*; dDab = NCC[C@@H](N)C(=O)O; Nle = CCCC[C@H](N)C(=O)O; dDap = NC[C@@H](N)C(=O)O; Dab = NCC[C@H](N)C(=O)O

Experiments:
[1] = system: P. aeruginosa GN_105, PmxR; conditions: GN 105, PmxR
Summary of the method: (§1)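 Mid-log cultures grown in Mueller Hinton broth at 37° C were tested by 2-fold broth microdilution at 5×10^5 CFU/mL final. Compounds were dissolved in water and tested over a final range of 32 to 0.015 μg/mL.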

[2] = system: K. pneumoniae GN_102 PmxR; conditions: GN 102 PmxR
Summary of the method: as §1

[3] = system: K. pneumoniae ATCC BAA-2146, NDM-1 pos; conditions: ATCC BAA-2146
Summary of the method: as §1

[4] = system: P. aeruginosa GN_043, PmxR; conditions: P. aeruginosa GN_043, PmxR
Summary of the method: as §1

[5] = system: K. pneumoniae ATCC 700603, MDR; conditions: ATCC 700603
Summary of the method: as §1

P. aeruginosa ATCC 27853 = conditions: ATCC 27853
Summary of the method: as §1

A. baumannii ATCC 19606 = conditions: ATCC 19606
Summary of the method: as §1

[6] = system: K. pneumoniae GN_106, PmxR; conditions: GN 106, PmxR
Summary of the method: as §1

K. pneumoniae ATCC 13883 = conditions: ATCC 13883
Summary of the method: as §1

E. coli ATCC 25922 = conditions: ATCC 25922
Summary of the method: as §1

A. baumannii GN_093 PmxR = conditions: GN 093 PmxR
Summary of the method: as §1

in vitro = conditions: human
Description: Cytotoxicity of the synthesised peptides was evaluated by comparison with commercially available colistin (polymyxin E), polymyxin B (Sigma chemical Co., St. Louis, Mo., U.S.A.) and synthetic octapeptin C4 by conducting lactate dehydrogenase (LDH) assay. CC50 values calculated based on curve fitting of dose dependent inhibition of cell growth represented the cytotoxicity of the peptide. Human kidney 2 (HK2) cells were seeded as 2000 cells per well in a 384 well cell culture plate in a final volume of 20 μL in DMEM/F12 medium (Invitrogen #11330057), in which 10% of FBS was added. Cells were incubated for 24 hours at 37° C., 5% CO2 to allow cells to attach to the plates. Similar conditions were employed for HEK293 and HepG2 cytotoxicity assays.
Cytotoxicity to HEK293 and HepG2 cells was determined using the resazurin assay (McMillian, M. K.; Li, L.; Parker, J. B.; Patel, L.; Zhong, Z.; Gunnett, J. W.; Powers, W. J.; Johnson, M. D. An improved resazurin-based cytotoxicity assay for hepatic cells; Cell Biol. Toxicol. 2002, 18, 157-173; O'Brien, J.; Wilson, I.; Orton, T.; Pognan, F. Investigation of the Alamar Blue (resazurin) fluorescent dye for the assessment of mammalian cell cytotoxicity. Eur. J. Biochem. 2000, 267, 5421-5426). In brief, HEK293 and HepG2 cells were seeded at 4000 cells/well in black-wall, clear-bottom 384-well plates (Corning, Australia) and incubated for 24 h at 37° C., 5% CO2. Compounds were then added into each well. After 24 h incubation, 5 μM resazurin was added per well and incubated at 37° C. for 2 h. Fluorescence intensity was then read using a Polarstar Omega with excitation/emission 560/590. The data was then analyzed using GraphPad Prism 6 software. CC50 values were determined using GraphPad Prism 6 software (Inc. La Jolla, Calif.).

Compound | MIC P. aeruginosa GN_105, PmxR [1] [mg/L] | MIC K. pneumoniae GN_102 PmxR [2] [mg/L] | MIC K. pneumoniae ATCC BAA-2146, NDM-1 pos [3] [mg/L] | MIC P. aeruginosa GN_043, PmxR [4] [mg/L] | MIC K. pneumoniae ATCC 700603, MDR [5] [mg/L] | MIC P. aeruginosa ATCC 27853 (P. aeruginosa ATCC 27853) [mg/L] | MIC A. baumannii ATCC 19606 (A. baumannii ATCC 19606) [mg/L] | MIC K. pneumoniae GN_106, PmxR [6] [mg/L] | MIC K. pneumoniae ATCC 13883 (K. pneumoniae ATCC 13883) [mg/L] | MIC E. coli ATCC 25922 (E. coli ATCC 25922) [mg/L] | MIC A. baumannii GN_093 PmxR (A. baumannii GN_093 PmxR) [mg/L] | CC50 at 24 h (in vitro) [µM]
CCCCCCC[C@@H](O)CC(=O)N[C@H](CN)C(=O)N[C@H]1CCNC(=O)[C@H](CC(C)C)NC(=O)[C@H](CCN)NC(=O)[C@H](CCN)NC(=O)[C@H](CCCC)NC(=O)[C@@H](Cc2ccccc2)NC(=O)[C@H](CCN)NC1=O [compound 9294, 3(R)OH-nC9CO-D-Dap-cyc[L-Dab-L-Dab-D-Phe-L-NorLeu-L-Dab-L-Dab-L-Leu]] ({Decanoyl(3R-OH)}-[dDap][Dab][Dab][dF][Nle][Dab][Dab]L; lactam 2-C) | 4 (≈ 3.88 µM) | 2 (≈ 1.94 µM) | 4 (≈ 3.88 µM) | 1 (≈ 0.971 µM) | 4 (≈ 3.88 µM) | 2 (≈ 1.94 µM) | 8 (≈ 7.76 µM) | 2 (≈ 1.94 µM) | 4 (≈ 3.88 µM) | 4 (≈ 3.88 µM) | 4 (≈ 3.88 µM) | 193
CC(C)CCCCC(=O)N[C@H](CCN)C(=O)N[C@H]1CCNC(=O)[C@H](CC(C)C)NC(=O)[C@H](CCN)NC(=O)[C@H](CCN)NC(=O)[C@H](CC(C)C)NC(=O)[C@@H](Cc2ccccc2)NC(=O)[C@H](CCN)NC1=O [compound 9290, 6Me-nC6CO-D-Dab-cyc[L-Dab-L-Dab-D-Phe-L-Leu-L-Dab-L-Dab-L-Leu]] ({Heptanoyl(6-Me)}-[dDab][Dab][Dab][dF]L[Dab][Dab]L; lactam 2-C) | 16 (≈ 16 µM) | 4 (≈ 4 µM) | 4 (≈ 4 µM) | 1 (≈ 1 µM) | 4 (≈ 4 µM) | 2 (≈ 2 µM) | 16 (≈ 16 µM) | 4 (≈ 4 µM) | 8 (≈ 8 µM) | 8 (≈ 8 µM) | 16 (≈ 16 µM) | > 300
CCCCCCC[C@@H](O)CC(=O)N[C@H](CN)C(=O)N[C@H]1CCNC(=O)[C@H](CC(C)C)NC(=O)[C@H](CCN)NC(=O)[C@H](CCN)NC(=O)[C@H]([C@@H](C)O)NC(=O)[C@@H](Cc2ccccc2)NC(=O)[C@H](CCN)NC1=O [compound 9295, 3(R)OH-nC9CO-D-Dap-cyc[L-Dab-L-Dab-D-Phe-L-Thr-L-Dab-L-Dab-L-Leu]] ({Decanoyl(3R-OH)}-[dDap][Dab][Dab][dF]T[Dab][Dab]L; lactam 2-C) | 4 (≈ 3.93 µM) | 2 (≈ 1.96 µM) | 4 (≈ 3.93 µM) | 2 (≈ 1.96 µM) | 4 (≈ 3.93 µM) | 2 (≈ 1.96 µM) | 4 (≈ 3.93 µM) | 4 (≈ 3.93 µM) | 4 (≈ 3.93 µM) | 2 (≈ 1.96 µM) | 4 (≈ 3.93 µM) | > 300
CCCCCCC[C@@H](O)CC(=O)N[C@H](CCN)C(=O)N[C@H]1CCNC(=O)[C@H](CC(C)C)NC(=O)[C@H](CCN)NC(=O)[C@H](CCN)NC(=O)[C@H]([C@@H](C)O)NC(=O)[C@@H](Cc2ccccc2)NC(=O)[C@H](CCN)NC1=O [compound 9289, 3(R)OH-nC9CO-D-Dab-cyc[L-Dab-L-Dab-D-Phe-L-Thr-L-Dab-L-Dab-L-Leu]] ({Decanoyl(3R-OH)}-[dDab][Dab][Dab][dF]T[Dab][Dab]L; lactam 2-C) | >32 | >32 | 2 (≈ 1.94 µM) | >32 | 1 (≈ 0.969 µM) | 1 (≈ 0.969 µM) | 2 (≈ 1.94 µM) | >32 | 2 (≈ 1.94 µM) | 2 (≈ 1.94 µM) | >32 | > 300
